Laboratory results published in publication PMC3167814, “Relationships between Membrane Binding, Affinity and Cell Internalization Efficacy of a Cell-Penetrating Peptide: Penetratin as a Case Study” (PLoS ONE, 2011).

Columns and labels:
[1] = PWR, synthetic lipid model membrane; assay type: binding; details: hyperbolic fit, apparent Kd, repeated 3 times
From the text: To get some insight into the role of the lipid component in the cell surface regarding penetratin interaction, lipid model systems composed of varied lipid composition were used. Both zwitterionic (egg PC), anionic (egg PG -phosphatidylglycerol-and egg PC/DOPG -phosphatidylglycerol/dioleoylphosphatidylglycerol-) and lipids with propensity to form negative membrane curvature (egg PC/DOPE -dioleoylphosphatidylethanolamine-) were chosen in order to understand the role of electrostatic interactions and membrane curvature in the interaction of penetratin with the lipid bilayer. For all the lipid systems, penetratin interaction led to spectral shifts in both the p- and s-polarisation. As in the case of cell membrane fragments studies, presented above, two distinct responses were observed depending on the membrane composition: 1) in the case of egg PC and egg PC/DOPE, a two phase binding process with negative shifts followed by positive shifts (for both polarizations) which equilibrated after certain concentrations were observed; 2) in the case of egg PG, egg PC/POPG (1-palmitoyl-2-oleoyl-sn-glycero-3-phospho-(1′-rac-glycerol)), penetratin led to a single binding process with positive shifts for both polarizations (see Table 1 for the direction and magnitude of the spectral shifts). […] The electrostatic interaction played an important role in penetratin interaction with the membrane, but was not the only relevant factor, the shape of the lipid headgroup and/or the lipid curvature seemed to also play a key role in (this will be further discussed below).
For the membrane interaction where two binding processes were observed, as in the case of egg PC, egg PC/DOPE, the first binding was associated with negative spectral shifts for both p- and s-polarizations, which corresponded mainly to mass changes (90–100%). […] In the case where only one binding event was observed (egg PG and egg PC/DOPG) mass changes again dominated the spectral changes (85 to 91%) (Table 5).
Here, the graphical analysis method was employed.
(§1) The sensitivity factor (Sf), a measure of the sensitivity of the instrument for the s- pol relative to p-pol ( [drawing 2] ), necessary to determine the mass and anisotropy axes has been determined, for the prism used in those experiments, to be 1.35 [46].

[2] = system: sialic acid deficient CHO-lec2 cells (SA^neg)
Description: (§2) As already reported, the quantity or concentration of internalized and membrane-bound penetratin could be differentiated and measured by MALDI mass spectrometry, [33], [34]. […] Using the reported protocol, the amount of internalized penetratin was quantified in one million cells that were incubated with 1 or 10 µM penetratin for one hour. After washing steps, the extracellular membrane-bound peptide was degraded by trypsin digestion, [33], [34] so that only the internalized peptide was quantified. […] The extracellular concentration could not be lowered further because of the lack of sensitivity of the MALDI-MS method for accurate measurements of sub-picomole quantities of penetratin.
(§3) Wild type Chinese Hamster Ovary CHO-K1 cells (WT), xylosetransferase- or GAG-deficient CHO-pgsA745 [59] cells (GAG^neg) and sialic acid deficient CHO-lec2 [60] cells (SA^neg) were cultured in Dulbecco's modified Eagle's medium (DMEM) supplemented with 10% fetal calf serum (FCS), penicillin (100,000 IU/L), streptomycin (100,000 IU/L), and amphotericin B (1 mg/L) in a humidified atmosphere containing 5% CO2 at 37°C.
(§4) Cellular uptake was quantified using the method described by Burlina et al.. In this protocol, the studied peptide bears a tag composed of four glycine residues together with a biotin moiety for purification purposes. After one-hour incubation with the peptide and washing, a protease is added (0.05% trypsin in Tris-HCl 100 mM pH 7.5) in order to detach the cells and to degrade the membrane-bound peptide. This avoids overestimating the quantity of internalized peptide due to the presence of peptides attached to the outer leaflet of the membrane. The cells are then lysed (0.3% Triton) and boiled, and the cell lysate is incubated with streptavidin-coated magnetic beads to extract the peptide from the lysate. For membrane-bound peptide quantification, washings but no protease digestion was done and the cells were directly lysed. The peptides are eluted from the streptavidin-coated magnetic beads with a α-cyano-4-hydroxycinnamic acid matrix and spotted on the MALDI plate. Mass spectrometry is not a quantitative method per se, therefore an internal standard is added to the lysis solution. […] This allows the absolute quantification of internalized and membrane-bound peptide. […] The experiments were repeated at least three times independently.

[3] = system: GAG-deficient CHO-pgsA745 cells (GAG^neg)
Description: as §2, §3, §4

[4] = system: Wild type Chinese Hamster Ovary CHO-K1 cells (WT)
Description: as §2, §3, §4

[5] = system: SA^neg cell membrane fragments; experiment: PWR, lipid bilayer composed of cell membrane fragments; assay type: binding, Chinese Hamster; details: SA^neg membrane fragments in egg PC planar bilayer; PWR shifts on incremental peptide addition, hyperbolic fit, apparent Kd; repeated 3 times
From the text: (§5) Homogenized membranes were obtained by osmotic and mechanical disruption of cells. A method to deposit cell membrane fragments on the PWR cell sample was developed as follows. The deposition of a membrane composed of cell membrane fragments into the PWR resonator led to spectral changes, namely large positive spectral shifts for both p- and s-polarizations relative to the buffer spectrum (Figure 2, panels A and B) indicating the immobilization of a significant amount of mass on the sensor surface. It should be noted that the shifts obtained for p-pol were considerably larger than the ones obtained for s-pol (s/p ratio about 0.7).
(§6) Regarding the direction of the PWR spectral shifts, two types of behavior were observed depending on the membrane composition: 1) in the case of GAG^neg cells, penetratin led to a two phase binding process with negative shifts followed by positive shifts (for both polarizations) which equilibrated after certain concentrations; 2) in the case of WT and SA^neg cells, penetratin led to a single binding process with positive shifts for both polarizations (see panels C and D in Figure 2 for penetratin interaction with WT cell membranes and Table 1 for the direction and magnitude of the spectral shifts). […] Penetratin affinity to lipid bilayers and membrane fragments could be calculated using PWR by measuring the resonance minimum position shifts upon incremental addition of peptide to the cell sample [39]. […]
(§7) The kinetics of penetratin interaction with the membrane was determined by following the shift in the resonance minimum position as a function of time for a peptide concentration slightly above the Kd value. […] Rate constants were determined for the second part of the signal (the resonance angle increase) and varied upon membrane composition (Figure 2 and Table 3). […]
as §1

[6] = system: GAG^neg cell membrane fragments; experiment: as above; assay type: binding, Chinese Hamster; details: GAG^neg membrane fragments in egg PC planar bilayer; PWR shifts on incremental peptide addition, hyperbolic fit, apparent Kd; repeated 3 times
From the text: as §5, §6, §7, §1

[7] = system: WT cell membrane fragments; experiment: as above; assay type: binding, Chinese Hamster; details: WT membrane fragments in egg PC planar bilayer; PWR shifts on incremental peptide addition, hyperbolic fit, apparent Kd; repeated 3 times
From the text: as §5, §6, §7, §1

[8] = 1 µM extracellular biotin-Gly4-tagged penetratin, one million cells, 1 h incubation, washings, trypsin degradation of membrane-bound peptide, MALDI-TOF MS with deuterated internal standard, repeated at least three times
[9] = 1 µM extracellular, 1 h, from internalized amount provided a cell volume of 1 pL

Substance: H-RQIKIWFQNRRMKWKK-NH2 [penetratin, Penetratin, positively charged cell-penetrating peptide derived from the third helix of the homeodomain of Antennapedia]
- Kd ([1]; Egg PC bilayer): 28000 ± 2000 nM
- Kd ([1]; Egg PC/DOPE bilayer): 500 ± 10 nM
- Kd ([1]; Egg PC/DOPG bilayer): 1400 ± 30 nM
- Kd ([1]; Egg PG bilayer): 300 ± 20 nM
- internalized peptide quantity [2, 8]: about 0.25 pmole
- intracellular penetratin concentration [2, 9]: about 0.25 µM
- internalized peptide quantity [3, 8]: about 0.25 pmole
- intracellular penetratin concentration [3, 9]: about 0.25 µM
- internalized peptide quantity [4, 8]: about 0.25 pmole
- intracellular penetratin concentration [4, 9]: about 0.25 µM
- Kd [5]: 300 ± 40 nM
- Kd [6]: 2000 ± 600 nM
- Kd [7]: 10 ± 3 nM
